Our source for the IC50 and DC50 values is US20230117034A1, “PYRAZOLOTRIAZINES” (Bayer Aktiengesellschaft, priority 2019, published 2023).

One assay has as its target T1, CDK2/CycE (Homo sapiens, UniProt P24941).
T1 construct: purchased ProQinase GmbH (Freiburg, Germany); host or cells: insect cells (Sf9)
The assay is described as follows: CDK2/CycE kinase assay (TR-FRET, 2 mM ATP). Format: biochemical. The settings on record: 2 mM ATP (high ATP); median; read-out: CDK2/CyclinE, 2 mM ATP (high ATP), IC50 (median). Summed up: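 GST-tagged human CDK2 and CycE from Sf9 cells, about 10 ng/ml, pre-incubated 15 min at 22 °C with compound in Tris/HCl pH 8.0 buffer. Reaction with 2 mM ATP and 0.75 µM biotinylated peptide for 25 min at 22 °C. Phospho-RB antibody TR-FRET (665/620 nm ratio) read after 1 h; data normalised to no-inhibitor and no-enzyme controls.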

The test system of assay [1] is BRCA1 mRNA expression in MDA-MB-231 cells. The assay is described as follows: qRT-PCR assay: BRCA1 mRNA expression in MDA-MB-231. Format: cell-based, human. The settings on record: Homo sapiens, MDA-MB-231, Inhibition of BRCA1 mRNA expression in MDA-MB-231 cells; median; read-out: RTqPCR-MDA-MB-231, IC50, BRCA1 (median). Summed up:
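Cells were seeded at 200,000 cells/well, left 24 h, then exposed continuously to test substances for 24 h. Total RNA (600 ng) was reverse-transcribed to cDNA and amplified by qPCR, and transcript levels were normalised to GAPDH housekeeping expression.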
In general terms: Real-time PCR tracks product formation cycle by cycle.

Assay [2] addresses T2, CYCLIN K (nuclear staining in CAL-120 cells) (Homo sapiens, UniProt O75909).
T2 construct: endogenous in cells; host or cells: CAL-120 human breast cancer cells (DSMZ ACC 459)
Nature of the assay: CYCLIN K nuclear protein level: immunofluorescence high content analysis (CAL-120). In kind it is cell-based. To be noted: 24 h, 50% reduction of nuclear CCNK staining intensity, median, read-out: CYCLIN K degradation IF, DC50-[mol/l] (median). Summed up: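 CAL-120 breast cancer cells treated in dose-response for 24 h at 37 °C, PFA-fixed and immunostained for cyclin K with Hoechst counterstain. Confocal imaging quantified nuclear intensity; DC50 is the concentration giving 50% reduction of nuclear CCNK staining, normalized to DMSO and control.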

T2 sequence (O75909 whole entry): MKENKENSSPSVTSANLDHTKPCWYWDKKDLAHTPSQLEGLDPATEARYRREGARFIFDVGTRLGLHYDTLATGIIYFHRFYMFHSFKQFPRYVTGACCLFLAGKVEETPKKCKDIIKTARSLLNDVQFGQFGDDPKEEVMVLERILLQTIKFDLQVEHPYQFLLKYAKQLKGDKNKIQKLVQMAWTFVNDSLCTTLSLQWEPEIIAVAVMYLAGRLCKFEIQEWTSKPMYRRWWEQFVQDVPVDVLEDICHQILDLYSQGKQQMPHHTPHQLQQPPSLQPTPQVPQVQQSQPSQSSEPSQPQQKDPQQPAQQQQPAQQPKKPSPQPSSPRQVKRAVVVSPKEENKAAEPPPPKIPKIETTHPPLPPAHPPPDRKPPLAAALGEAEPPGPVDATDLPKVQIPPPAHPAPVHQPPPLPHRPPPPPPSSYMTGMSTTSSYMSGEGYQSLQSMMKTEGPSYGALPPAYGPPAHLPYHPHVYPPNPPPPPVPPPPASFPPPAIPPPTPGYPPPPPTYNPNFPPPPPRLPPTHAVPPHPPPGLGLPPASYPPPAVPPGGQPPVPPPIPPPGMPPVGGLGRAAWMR
T2 sequence (Q9NYV4 whole entry partner): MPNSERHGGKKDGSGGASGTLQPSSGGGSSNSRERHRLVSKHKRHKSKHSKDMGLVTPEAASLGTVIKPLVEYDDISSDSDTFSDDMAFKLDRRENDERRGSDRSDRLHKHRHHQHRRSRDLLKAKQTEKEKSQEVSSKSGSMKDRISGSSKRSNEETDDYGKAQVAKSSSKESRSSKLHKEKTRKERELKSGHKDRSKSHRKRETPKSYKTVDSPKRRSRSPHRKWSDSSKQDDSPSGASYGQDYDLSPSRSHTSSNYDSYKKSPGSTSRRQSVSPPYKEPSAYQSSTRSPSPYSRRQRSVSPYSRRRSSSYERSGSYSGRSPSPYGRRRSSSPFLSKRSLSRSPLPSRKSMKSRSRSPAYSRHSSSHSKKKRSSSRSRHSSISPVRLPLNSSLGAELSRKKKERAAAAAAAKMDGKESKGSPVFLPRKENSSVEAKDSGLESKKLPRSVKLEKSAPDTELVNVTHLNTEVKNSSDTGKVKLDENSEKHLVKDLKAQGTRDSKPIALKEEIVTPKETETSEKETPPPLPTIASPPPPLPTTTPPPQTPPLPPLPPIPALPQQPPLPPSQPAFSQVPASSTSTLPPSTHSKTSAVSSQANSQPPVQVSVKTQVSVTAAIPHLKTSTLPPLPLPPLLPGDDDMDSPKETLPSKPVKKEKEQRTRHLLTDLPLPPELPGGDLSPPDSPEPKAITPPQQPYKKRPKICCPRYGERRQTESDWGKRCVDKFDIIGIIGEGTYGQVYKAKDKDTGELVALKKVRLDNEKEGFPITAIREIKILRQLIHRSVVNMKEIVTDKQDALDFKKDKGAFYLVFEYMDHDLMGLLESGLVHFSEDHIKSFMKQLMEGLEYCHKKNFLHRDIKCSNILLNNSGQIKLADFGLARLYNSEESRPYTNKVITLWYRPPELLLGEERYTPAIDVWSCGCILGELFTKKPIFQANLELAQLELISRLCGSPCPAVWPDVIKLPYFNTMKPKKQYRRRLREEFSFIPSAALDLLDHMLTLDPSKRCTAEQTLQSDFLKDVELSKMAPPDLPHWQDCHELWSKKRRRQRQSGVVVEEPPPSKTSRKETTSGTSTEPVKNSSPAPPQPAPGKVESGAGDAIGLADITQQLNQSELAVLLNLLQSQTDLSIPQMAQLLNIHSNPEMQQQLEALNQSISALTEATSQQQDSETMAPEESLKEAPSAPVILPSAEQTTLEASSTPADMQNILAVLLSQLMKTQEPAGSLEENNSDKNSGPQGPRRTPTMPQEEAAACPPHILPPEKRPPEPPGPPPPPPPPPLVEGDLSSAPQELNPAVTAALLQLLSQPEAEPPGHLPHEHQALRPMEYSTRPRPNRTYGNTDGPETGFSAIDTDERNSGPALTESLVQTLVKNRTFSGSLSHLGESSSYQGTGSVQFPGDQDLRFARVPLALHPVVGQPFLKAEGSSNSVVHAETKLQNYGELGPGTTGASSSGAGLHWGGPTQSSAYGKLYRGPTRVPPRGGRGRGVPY

With `Fc1cccc(-c2nnc(CNc3nc(N4CCOCC4)nc4c(Br)cnn34)[nH]2)c1` [Example 44, 8-bromo-N-{[5-(3-fluorophenyl)-4H-1,2,4-triazol-3-yl]methyl}-2-(morpholin-4-yl)pyrazolo[1,5-a][1,3,5]triazin-4-amine], the IC50 at CDK2/CycE was found to be 1130 nM; in assay [1], 2.95 nM. In addition, in assay [2], the DC50 worked out at 2.58 nM.
The like results for `Fc1ccc2[nH]c(CNc3nc(N4CCOCC4)nc4c(C(F)(F)F)cnn34)nc2c1F` [Example 426, N-[(4,5-difluoro-1H-benzimidazol-2-yl)methyl]-2-(morpholin-4-yl)-8-(trifluoromethyl)pyrazolo [1,5-a][1,3,5]triazin-4-amine] were, in that order, 17300 nM, 3.21 nM and 0.511 nM.
The like results for `Cc1cccc(-c2nnc(CNc3nc(N4CCOCC4)nc4c(Br)cnn34)[nH]2)c1` [Example 40, 8-bromo-N-{[5-(3-methylphenyl)-4H-1,2,4-triazol-3-yl]methyl}-2-(morpholin-4-yl)pyrazolo[1,5-a][1,3,5]triazin-4-amine] were, in that order, 2110 nM, 14.6 nM and 0.611 nM.
The like results for `Brc1cnn2c(NCc3nnc(-c4cccnc4)[nH]3)nc(N3CCOCC3)nc12` [Example 53, 8-bromo-2-(morpholin-4-yl)-N-{[5-(pyridin-3-yl)-4H-1,2,4-triazol-3-yl]methyl}pyrazolo[1,5-a][1,3,5]triazin-4-amine] were, in that order, 1680 nM, 77.1 nM and 9.25 nM.
On to `CC(C)c1cnn2c(NCc3nnc(-c4ccccc4)[nH]3)nc(N(C)CC(C)(C)O)nc12` [Example 39, 2-methyl-1-{methyl[4-{[(5-phenyl-4H-1,2,4-triazol-3-yl)methyl]amino}-8-(propan-2-yl)pyrazolo[1,5-a][1,3,5]triazin-2-yl]amino}propan-2-ol], for which the IC50 on CDK2/CycE came to 2110 nM; in assay [1] it was 92.3 nM. Besides, the DC50 in assay [2] was 8.13 nM.
The like results for `COc1cccc(-c2nnc(CNc3nc(N4CCOCC4)nc4c(Br)cnn34)[nH]2)c1` [Example 50, 8-bromo-N-{[5-(3-methoxyphenyl)-4H-1,2,4-triazol-3-yl]methyl}-2-(morpholin-4-yl)pyrazolo[1,5-a][1,3,5]triazin-4-amine] were, in that order, 2330 nM, 18.2 nM and 4.22 nM.
The like results for `CCc1cnn2c(NCc3nc4ccccc4[nH]3)nc(N3CCOCC3)nc12` [Example 431, N-[(1H-benzimidazol-2-yl)methyl]-8-ethyl-2-(morpholin-4-yl)pyrazolo[1,5-a][1,3,5]triazin-4-amine] were, in that order, 1590 nM, 4.17 nM and 1.74 nM.
The like results for `C[C@@H]1COCCN1c1nc(NCc2nc3ccccc3[nH]2)n2ncc(Br)c2n1` [Example 56, N-[(1H-benzimidazol-2-yl)methyl]-8-bromo-2-[(3R)-3-methylmorpholin-4-yl]pyrazolo[1,5-a][1,3,5]triazin-4-amine] were, in that order, 2020 nM, 21.8 nM and 2.19 nM.
On to `Fc1ccc2[nH]c(CNc3nc(N4CCOCC4)nc4c(-c5cncs5)cnn34)nc2c1F.O=C(O)C(F)(F)F` [Example 442, trifluoroacetic acid N-[(4,5-difluoro-1H-benzimidazol-2-yl)methyl]-2-(morpholin-4-yl)-8-(1,3-thiazol-5-yl)pyrazolo[1,5-a][1,3,5]triazin-4-amine], for which the IC50 on CDK2/CycE is greater than 20000 nM; in assay [1], 0.738 nM. The DC50 in assay [2] came to 0.385 nM.
On to `CCc1cnn2c(NCc3nc4c(F)c(F)ccc4[nH]3)nc(N3CCOCC3)nc12` [Example 432, N-[(4,5-difluoro-1H-benzimidazol-2-yl)methyl]-8-ethyl-2-(morpholin-4-yl)pyrazolo[1,5-a][1,3,5]triazin-4-amine], for which the results for the IC50 (at CDK2/CycE; in assay [1]) were 7570 nM and 1.76 nM, respectively. Moreover, the DC50 in assay [2] worked out at 0.353 nM.
On to `Cc1cnn2c(NCc3nc4c(F)c(F)ccc4[nH]3)nc(N(C)CC(C)(C)O)nc12` [Example 395, 1-[(4-{[(4,5-difluoro-1H-benzimidazol-2-yl)methyl]amino}-8-methylpyrazolo[1,5-a][1,3,5]triazin-2-yl)(methyl)amino]-2-methylpropan-2-ol], for which the IC50 was greater than 20000 nM on CDK2/CycE and 14.7 nM in assay [1]. Moreover, the DC50 in assay [2] was 0.884 nM.
Take `Clc1ccc(-c2nnc(CNc3nc(N4CCOCC4)nc4c(Br)cnn34)[nH]2)cc1` [Example 45, 8-bromo-N-{[5-(4-chlorophenyl)-4H-1,2,4-triazol-3-yl]methyl}-2-(morpholin-4-yl)pyrazolo[1,5-a][1,3,5]triazin-4-amine]: the values for the IC50 (on CDK2/CycE; in assay [1]) were 5370 nM and 99 nM, respectively. Further, the DC50 in assay [2] is 44.4 nM.
The like results for `Clc1cccc(-c2nnc(CNc3nc(N4CCOCC4)nc4c(Br)cnn34)[nH]2)c1` [Example 51, 8-bromo-N-{[5-(3-chlorophenyl)-4H-1,2,4-triazol-3-yl]methyl}-2-(morpholin-4-yl)pyrazolo[1,5-a][1,3,5]triazin-4-amine] were, in that order, 1640 nM, 5.8 nM and 3.15 nM.
The like results for `CN1CCN(c2nc(NCc3nc4c(F)c(F)ccc4[nH]3)n3ncc(C4CC4(F)F)c3n2)CC1` (stereo not drawn) [Example 429, N-[(4,5-difluoro-1H-benzimidazol-2-yl)methyl]-8-(2,2-difluorocyclopropyl)-2-(4-methylpiperazin-1-yl)pyrazolo[1,5-a][1,3,5]triazin-4-amine] were, in that order, greater than 20000 nM, 7.47 nM and 3.86 nM.
The like results for `COc1ccccc1-c1nnc(CNc2nc(N3CCOCC3)nc3c(Br)cnn23)[nH]1` [Example 61, 8-bromo-N-{[5-(2-methoxyphenyl)-4H-1,2,4-triazol-3-yl]methyl}-2-(morpholin-4-yl)pyrazolo[1,5-a][1,3,5]triazin-4-amine] were, in that order, 9060 nM, 9.54 nM and 3.59 nM.
Regarding `OC[C@H]1CCCCN1c1nc(NCc2nc3ccccc3[nH]2)n2ncc(Br)c2n1` [Example 60, [(2R)-1-(4-{[(1H-benzimidazol-2-yl)methyl]amino}-8-bromopyrazolo[1,5-a][1,3,5]triazin-2-yl)piperidin-2-yl]methanol], the IC50 was 738 nM on CDK2/CycE and 45.3 nM in assay [1]. For the same molecule, the DC50 in assay [2] was 3.05 nM.
Turning to `FC(F)(F)c1cccc(-c2nnc(CNc3nc(N4CCOCC4)nc4c(Br)cnn34)[nH]2)c1` [Example 52, 8-bromo-2-(morpholin-4-yl)-N-({5-[3-(trifluoromethyl)phenyl]-4H-1,2,4-triazol-3-yl}methyl)pyrazolo[1,5-a][1,3,5]triazin-4-amine], the IC50 came to 2650 nM at CDK2/CycE and 26 nM in assay [1]. Also, in assay [2], the DC50 stood at 2.83 nM.
The like results for `Cc1cnn2c(NCc3nc4c(F)c(F)ccc4[nH]3)nc(N3CCOCC3)nc12` [Example 392, N-[(4,5-difluoro-1H-benzimidazol-2-yl)methyl]-8-methyl-2-(morpholin-4-yl)pyrazolo[1,5-a][1,3,5]triazin-4-amine] were, in that order, greater than 20000 nM, 2.55 nM and 0.519 nM.
The like results for `FC(F)(F)c1cnn2c(NCc3nnc(-c4ccccc4)[nH]3)nc(N3CCOCC3)nc12` [Example 427, 2-(morpholin-4-yl)-N-[(5-phenyl-4H-1,2,4-triazol-3-yl)methyl]-8-(trifluoromethyl)pyrazolo[1,5-a][1,3,5]triazin-4-amine] were, in that order, 5230 nM, 45 nM and 9.95 nM.
The like results for `Fc1ccc2[nH]c(CNc3nc(N4CCN5CCC4CC5)nc4c(C(F)(F)F)cnn34)nc2c1F` [Example 407, 2-(1,4-diazabicyclo[3.2.2]nonan-4-yl)-N-[(4,5-difluoro-1H-benzimidazol-2-yl)methyl]-8-(trifluoromethyl)pyrazolo[1,5-a][1,3,5]triazin-4-amine] were, in that order, greater than 20000 nM, 1.6 nM and 0.643 nM.
Regarding `N#Cc1cccc(-c2c[nH]c(CNc3nc(N4CCOCC4)nc4c(Br)cnn34)n2)c1` [Example 42, 3-[2-({[8-bromo-2-(morpholin-4-yl)pyrazolo[1,5-a][1,3,5]triazin-4-yl]amino}methyl)-1H-imidazol-4-yl]benzonitrile], the values for the IC50 (at CDK2/CycE; in assay [1]) were 1030 nM and 3.4 nM, respectively. Moreover, the DC50 in assay [2] is 0.587 nM.
Consider `Brc1cnn2c(NCc3nnc(-c4ccccn4)[nH]3)nc(N3CCOCC3)nc12` [Example 54, 8-bromo-2-(morpholin-4-yl)-N-{[5-(pyridin-2-yl)-4H-1,2,4-triazol-3-yl]methyl}pyrazolo[1,5-a][1,3,5]triazin-4-amine], for which the IC50 on CDK2/CycE is 1890 nM; in assay [1] it was 66.2 nM. Moreover, the DC50 in assay [2] came out at 10.2 nM.
